Measured values: US20250326741A1, “GLUCOSE-DEPENDENT INSULINOTROPIC POLYPEPTIDE RECEPTOR ANTAGONISTS AND USES THEREOF” (Pfizer Inc., priority 2024, published 2025)
pIC50: −log10 of the molar value.

What follows are molecules tested against T1, human Glucose-dependent Insulinotropic Polypeptide Receptor (hGIPR) (Homo sapiens, UniProt P48546) (assay: Functional in vitro GIPR antagonist potency assay (intracellular cAMP, HTRF, hGIP stimulation at EC80)). Settings: geometric mean; CHO-K1 cells stably expressing human GIPR, cAMP after hGIP stimulation at EC80.
T1 sequence (P48546 22-466): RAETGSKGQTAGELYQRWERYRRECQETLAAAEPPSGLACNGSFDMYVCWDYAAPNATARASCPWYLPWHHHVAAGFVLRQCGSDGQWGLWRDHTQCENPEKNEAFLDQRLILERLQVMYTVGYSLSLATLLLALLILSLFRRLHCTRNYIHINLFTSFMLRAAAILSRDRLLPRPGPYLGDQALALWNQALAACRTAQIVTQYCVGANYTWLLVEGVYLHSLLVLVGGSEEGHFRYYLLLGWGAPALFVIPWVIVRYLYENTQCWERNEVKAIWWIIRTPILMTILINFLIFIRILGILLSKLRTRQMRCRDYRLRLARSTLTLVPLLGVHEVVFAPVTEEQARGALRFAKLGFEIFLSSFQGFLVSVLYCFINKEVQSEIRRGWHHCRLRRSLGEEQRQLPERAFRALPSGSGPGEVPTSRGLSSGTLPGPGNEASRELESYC
Type: cell-based
Procedure: Example AA. Functional In Vitro GIPR Antagonist Potency Assay
The functional in vitro antagonist potency for test compounds was determined by monitoring intracellular cyclic adenosine monophosphate (cAMP) levels in Chinese hamster ovary (CHO)—K1 cells stably expressing the human Glucose-dependent Insulinotropic Polypeptide Receptor (hGIPR). Following agonist activation, hGIPR associates with the G-protein complex causing the Gas subunit to exchange bound guanosine diphosphate (GDP) for guanosine triphosphate (GTP), followed by dissociation of the Gas-GTP complex. The activated Gas subunit can couple to downstream effectors to regulate the levels of second messengers or cAMP within the cell. Thereby, determination of intracellular cAMP levels allows for pharmacological characterization. Intracellular cAMP levels are quantitated using a homogenous assay utilizing the Homogeneous Time Resolved Fluorescence (HTRF) technology from Perkin Elmer. The method is a competitive immunoassay between native cAMP produced by the cells and cAMP labelled with the acceptor dye, d2. The two entities compete for binding to a monoclonal anti-cAMP antibody labeled with cryptate. The specific signal is inversely proportional to the concentration of cAMP in the cells.
Test compounds were solubilized to a concentration of 30 mM in 100% dimethyl sulfoxide (DMSO). An 11-point dilution series using 1 in 3.162-fold serial dilutions was created in 100% DMSO with a top concentration of 8 mM. The serially diluted compound was spotted with an Echo Acoustic liquid handler (Beckman Coulter) into a 384-well assay plate (Corning, Cat No. 3824) at 50 nL/well with duplicate points at each concentration, at a 200× final assay concentration (FAC). The final compound concentration range in the assay was 40 μM to […], with a final DMSO concentration of 0.5%.
Frozen assay-ready vials (at 1×10^7 cells/vial) of CHO-K1 cells stably expressing the Gs-coupled human GIPR receptor (Eurofins, DiscoverX, Cat No. 95-0146C2) were thawed, counted, and resuspended in assay buffer consisting of Hank's Balanced Salt Solution (HBSS, Lonza Cat No. 10-527) containing 20 mM (4-(2-hydroxyethyl)-1-piperazineethanesulfonic acid (HEPES, Lonza, Cat No. 17-737E), 0.1% bovine serum albumin (BSA, Sigma, Cat No. A7979), and 200 μM 3-isobutyl-1-methylxanthine (IBMX, Sigma, Cat No. 15879) at a density of 4×10^5 cells/mL. Cells were added to assay plate (5 μL/well of 4×10^5 cells/mL stock for 2,000 cells/well final) containing 50 nL of 200×FAC test compound, and incubated at 37° C. (95% O2: 5% CO2) for 2 hours, with micro-clime lids (Labcyte, Cat No. LLS-0310). Following the 2-hour cell and compound incubation, a stimulation mix comprised of hGIPR agonist human glucose-dependent insulinotropic polypeptide (hGIP, full length, Sigma Cat No. G2269) in assay buffer/0.1% DMSO was added to the assay plate (5 μL/well) at an estimated EC80 FAC (based on previous hGIP agonist curves) and incubated for another 30 minutes with micro-clime lids at 37° C. (95% O2: 5% CO2), after which intracellular cAMP levels were quantified as per Perkin Elmer's protocol (5 μL of d2 and then 5 μL cryptate, incubated for 1 hour at room temperature). Emission spectra of samples were measured on a Pherastar plate reader (BMG Labtech Inc) using a HTRF protocol (excitation, 320 nm; emission, 665 nm/620 nm).
(95% O2: 5% CO2), with a micro-clime lid. Following the 2-hour cell and DMSO incubation, a hGIP concentration response curve at 2×FAC (12-point curve using 1 in 3 serial dilutions, with triplicate points at each concentration, 100 nM final top concentration) in assay buffer/1% DMSO was added (5 μL/well) and incubated for a further 30 minutes with a micro-clime lid at 37° C. (95% O2: 5% CO2), after which intracellular cAMP levels were quantified and samples measured as described previously. Experiments passed quality control if the agonist concentration used for stimulation fell between the on-the-day EC50-EC90. […]

Q: How did the pIC50 turn out when Cc1c(C(=O)O)ccc(-n2ccc(NC(=O)[C@H]3CCCN3C(=O)COc3ccc(OC(F)(F)F)cc3)n2)c1F [Example 65, 3-fluoro-2-methyl-4-{3-[(1-{[4-(trifluoromethoxy)phenoxy]acetyl}-D-prolyl)amino]-1H-pyrazol-1-yl}benzoic acid] was run?
A: 7.40

Q: Cc1cc(-n2ccc(NC(=O)[C@H]3CCCN3C(=O)CNc3ccc(C(F)(F)F)cc3)n2)ccc1C(N)=O [Example 61, N-[4-(trifluoromethyl)phenyl]glycyl-N-[1-(4-carbamoyl-3-methylphenyl)-1H-pyrazol-3-yl]-D-prolinamide] was tested. Which pIC50 did it give?
A: 6.35

Q: Cc1cc(C(=O)O)ccc1-n1ccc(NC(=O)[C@H]2CCCN2C(=O)Nc2ccc(C(C)C)cc2)n1 [Example 25, 3-methyl-4-{3-[(1-{[4-(propan-2-yl)phenyl]carbamoyl}-D-prolyl)amino]-1H-pyrazol-1-yl}benzoic acid] was tested. Which pIC50 did it give?
A: 7.01

Q: How did the pIC50 turn out when Cc1cc(-n2ccc(NC(=O)[C@H]3CCCN3C(=O)Nc3ccc(C4CCC4)cc3)n2)ccc1C(=O)O [Example 42, 4-[3-({1-[(4-cyclobutylphenyl)carbamoyl]-D-prolyl}amino)-1H-pyrazol-1-yl]-2-methylbenzoic acid] was run?
A: 7.92

Q: With CC(C)c1ccc(NC(=O)N2CCC[C@@H]2C(=O)Nc2ccn(-c3ccc(C(=O)O)cn3)n2)cc1 [Example 21, 6-{3-[(1-{[4-(propan-2-yl)phenyl]carbamoyl}-D-prolyl)amino]-1H-pyrazol-1-yl}pyridine-3-carboxylic acid] as the molecule, how does the pIC50 read?
A: 7.30

Q: With Cc1cc(-n2ccc(NC(=O)[C@H]3CCCN3C(=O)Nc3ccc(C(F)(F)F)c(C)c3)n2)ccc1C(=O)O [Example 38, 2-methyl-4-{3-[(1-{[3-methyl-4-(trifluoromethyl)phenyl]carbamoyl}-D-prolyl)amino]-1H-pyrazol-1-yl}benzoic acid] as the molecule, how does the pIC50 read?
A: 7.55

Q: With CC(C)c1ccc(NC(=O)N2CCC[C@@H]2C(=O)Nc2ccn(-c3ccc(C(N)=O)cc3)n2)cc1F [Example 57] as the molecule, how does the pIC50 read?
A: 6.92

Q: How did the pIC50 turn out when Cc1cc(-n2ccc(NC(=O)[C@H]3CCCN3C(=O)Nc3ccc(OC(F)F)cc3)n2)ccc1C(=O)O [Example 56, 4-{3-[(1-{[4-(difluoromethoxy)phenyl]carbamoyl}-D-prolyl)amino]-1H-pyrazol-1-yl}-2-methylbenzoic acid] was run?
A: 6.51

Q: CC(C)c1ccc(NC(=O)N2CCC[C@@H]2C(=O)Nc2ccn(-c3ccc(C(=O)O)cc3)n2)cc1 [Example 22, 4-{3-[(1-{[4-(propan-2-yl)phenyl]carbamoyl}-D-prolyl)amino]-1H-pyrazol-1-yl}benzoic acid] was tested. Which pIC50 did it give?
A: 7.66

Q: How did the pIC50 turn out when Cc1cc(-n2ccc(NC(=O)[C@H]3CCCN3C(=O)COc3ccc(OC(F)(F)F)cc3)n2)ccc1C(=O)O [Example 63, 2-methyl-4-{3-[(1-{[4-(trifluoromethoxy)phenoxy]acetyl}-D-prolyl)amino]-1H-pyrazol-1-yl}benzoic acid] was run?
A: 7.34

Q: Cc1cc(-n2ccc(NC(=O)[C@H]3CCCN3C(=O)NCc3ccc(C(F)(F)F)cc3)n2)ccc1C(=O)O [Example 40, 2-methyl-4-(3-{[1-{{[4-(trifluoromethyl)phenyl]methyl}carbamoyl)-D-prolyl]amino}-1H-pyrazol-1-yl)benzoic acid] was tested. Which pIC50 did it give?
A: 6.82

Q: How did the pIC50 turn out when O=C(Nc1ccn(-c2cc(F)c(O)c(F)c2)n1)[C@H]1CCCN1C(=O)Nc1ccc(C(F)(F)F)cc1 [Example 54] was run?
A: 7.92

Q: Cc1cc(-n2ccc(NC(=O)[C@H]3CCCN3C(=O)Nc3ccc(C(C)C)c(C)c3)n2)ccc1C(=O)O [Example 6, 2-Methyl-4-{3-[(1-{[3-methyl-4-(propan-2-yl)phenyl]carbamoyl}-D-prolyl)amino]-1H-pyrazol-1-yl}benzoic Acid] was tested. Which pIC50 did it give?
A: 8.39
